In patent US5703232A, “Process and solvate of 2-methyl-thieno-benzodiazepine” (Eli Lilly and Company, priority 1996, dated 1997):

Tests used:
[1] = detection of radiolabelled compound in saliva; assay type: in vivo
rats [2] = experiment: conditioned avoidance response in rats; assay type: in vivo
mice [3] = experiment: apomorphine-induced hypothermia in mice; assay type: in vivo
Description: (§1) The Form I olanzapine prepared by the process of this invention has useful central nervous system activity. […] For example, the anhydrous Form I compound has been assessed in a number of standard behavior tests predictive of antipsychotic activity. The claimed compound antagonised apomorphine-induced climbing behavior and hypothermia in mice. See Moore, N. A. et al Psychopharmacology 94 (2), 263-266 (1988).

[4] = stability of the anhydrous crystalline forms; assay type: physicochemical; conditions: anhydrous crystalline form, suitability for commercial pharmaceutical formulations
rats [5] = experiment: induction of catalepsy; assay type: in vivo; conditions: compared with doses required to block conditioned avoidance response
5-HT2B receptor = 5-HT2B receptor activity
mice [6] = experiment: apomorphine-induced climbing behavior in mice; assay type: in vivo
Description: as §1

| Compound | detection in saliva [1] | inhibition of conditioned avoidance response (rats [2]) | antagonism of apomorphine-induced hypothermia (mice [3]) | stability of the polymorph [4] | induction of catalepsy (rats [5]) | 5-HT2B receptor activity (5-HT2B receptor) | antagonism of apomorphine-induced climbing behavior (mice [6]) |
| --- | --- | --- | --- | --- | --- | --- | --- |
| Cc1cc2c(s1)Nc1ccccc1N=C2N1CCN(C)CC1 [2-methyl-4-(4-methyl-1-piperazinyl)-10H-thieno-[2,3-b][1,5]benzodiazepine] | can be detected in the saliva | – | – | – | – | – | – |
| Cc1cc2c(s1)Nc1ccccc1N=C2N1CCN(C)CC1 [anhydrous Form I olanzapine, 2-methyl-4-(4-methyl-1-piperazinyl)-10H-thieno[2,3-b][1,5]benzodiazepine] | – | inhibits | antagonised | stable | only at higher doses | 5-HT2B receptor activity | antagonised |
| Cc1cc2c(s1)Nc1ccccc1N=C2N1CCN(C)CC1 [anhydrous Form II olanzapine, 2-methyl-4-(4-methyl-1-piperazinyl)-10H-thieno[2,3-b][1,5]benzodiazepine] | – | – | – | metastable | – | – | – |
